Data set [1] in a line: Clearance in cynomolgus monkey at 0.5 mg/kg, iv measured up to 24 hrs by LC-MS/MS analysis. To be noted: in vivo. Format: ADME, organism-based, Macaca fascicularis.
Data set [2] concerns the target T1, CYP2B6 (Homo sapiens, UniProt P20813).
T1 sequence (P20813 whole entry): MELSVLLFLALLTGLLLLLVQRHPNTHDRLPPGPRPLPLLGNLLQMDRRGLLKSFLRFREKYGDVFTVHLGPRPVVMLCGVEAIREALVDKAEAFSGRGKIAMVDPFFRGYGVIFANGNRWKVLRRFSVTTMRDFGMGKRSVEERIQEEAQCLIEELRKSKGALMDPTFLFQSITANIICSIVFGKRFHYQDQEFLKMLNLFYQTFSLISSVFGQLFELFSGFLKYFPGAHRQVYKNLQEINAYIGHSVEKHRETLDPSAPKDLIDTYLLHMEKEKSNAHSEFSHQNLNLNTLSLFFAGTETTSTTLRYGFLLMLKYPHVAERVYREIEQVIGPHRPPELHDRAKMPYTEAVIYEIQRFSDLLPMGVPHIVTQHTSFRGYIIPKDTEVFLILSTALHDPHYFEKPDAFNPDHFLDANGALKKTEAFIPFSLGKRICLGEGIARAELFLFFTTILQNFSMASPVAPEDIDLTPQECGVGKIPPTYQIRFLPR
The data set is described as follows: Time dependent inhibition of CYP2B6 (unknown origin) at 30 uM measured after 30 mins relative to control. Format: ADME. The conditions noted are these: read-out: TDI.

The target in data set [3] is CYP2C19 (Homo sapiens, UniProt P33261). The data set is described as follows: Time dependent inhibition of CYP2C19 (unknown origin) at 30 uM measured after 30 mins relative to control. Format: ADME. The conditions noted are these: read-out: TDI.
Data set [4] concerns the target T2, Tyrosine-protein kinase receptor UFO (Homo sapiens, UniProt P30530).
T2 sequence (P30530 whole entry): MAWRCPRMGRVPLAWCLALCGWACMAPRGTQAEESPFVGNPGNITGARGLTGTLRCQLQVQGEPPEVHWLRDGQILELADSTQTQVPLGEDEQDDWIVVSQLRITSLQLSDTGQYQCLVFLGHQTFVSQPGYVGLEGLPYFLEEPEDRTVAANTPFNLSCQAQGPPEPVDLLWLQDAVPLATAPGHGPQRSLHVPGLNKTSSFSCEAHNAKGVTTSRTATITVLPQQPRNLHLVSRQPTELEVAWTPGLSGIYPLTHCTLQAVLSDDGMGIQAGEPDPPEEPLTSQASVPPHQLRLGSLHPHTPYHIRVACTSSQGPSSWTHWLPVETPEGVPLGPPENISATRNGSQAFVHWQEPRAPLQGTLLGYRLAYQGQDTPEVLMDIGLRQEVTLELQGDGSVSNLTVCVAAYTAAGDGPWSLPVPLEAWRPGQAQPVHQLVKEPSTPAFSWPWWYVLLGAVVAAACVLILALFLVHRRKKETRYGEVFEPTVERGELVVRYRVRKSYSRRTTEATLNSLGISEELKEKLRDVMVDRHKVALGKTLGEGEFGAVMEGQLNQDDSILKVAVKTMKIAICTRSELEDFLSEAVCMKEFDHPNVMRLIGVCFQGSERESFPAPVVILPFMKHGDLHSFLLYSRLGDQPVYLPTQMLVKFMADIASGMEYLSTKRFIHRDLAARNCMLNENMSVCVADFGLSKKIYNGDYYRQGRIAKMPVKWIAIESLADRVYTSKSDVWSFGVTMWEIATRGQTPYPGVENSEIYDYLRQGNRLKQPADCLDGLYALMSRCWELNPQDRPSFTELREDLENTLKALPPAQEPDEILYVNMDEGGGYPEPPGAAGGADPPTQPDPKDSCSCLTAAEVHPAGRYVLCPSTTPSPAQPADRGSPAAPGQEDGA
The data set is described as follows: Inhibition of autophosphorylation AXL (unknown origin) expressed in HEK293 cells assessed as NanoLuc activity associated with phosphorylated proteins measured after 1 hr incubation by intracellular pAXL-ELISA. The format is cell-based.

Data set [5] has as its target T2, Tyrosine-protein kinase receptor UFO. The data set is described as follows: Inhibition of human AXL measured after 150 mins by ATP-competitive HTRF based biochemical assay.
The target in data set [6] is T3, CYP1A2 (Homo sapiens, UniProt P05177).
T3 sequence (P05177 whole entry): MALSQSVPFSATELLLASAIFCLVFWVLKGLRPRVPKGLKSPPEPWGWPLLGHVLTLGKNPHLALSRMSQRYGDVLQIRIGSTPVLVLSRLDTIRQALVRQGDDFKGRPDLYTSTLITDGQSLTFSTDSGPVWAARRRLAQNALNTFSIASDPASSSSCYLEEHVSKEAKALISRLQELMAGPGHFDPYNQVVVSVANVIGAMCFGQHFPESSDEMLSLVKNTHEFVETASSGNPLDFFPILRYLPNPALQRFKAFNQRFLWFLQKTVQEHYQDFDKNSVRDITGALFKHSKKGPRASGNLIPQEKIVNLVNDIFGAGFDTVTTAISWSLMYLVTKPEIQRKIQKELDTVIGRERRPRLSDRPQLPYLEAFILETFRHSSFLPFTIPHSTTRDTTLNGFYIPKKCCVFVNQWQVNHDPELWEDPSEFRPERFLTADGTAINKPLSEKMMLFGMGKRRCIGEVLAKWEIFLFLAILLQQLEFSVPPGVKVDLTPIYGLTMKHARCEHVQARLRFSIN
The data set is described as follows: Time dependent inhibition of CYP1A2 (unknown origin) at 30 uM measured after 30 mins relative to control. Format: ADME. The conditions noted are these: read-out: TDI.

Data set [7] has as its target T4, CYP2C8 (Homo sapiens, UniProt P10632).
T4 sequence (P10632 whole entry): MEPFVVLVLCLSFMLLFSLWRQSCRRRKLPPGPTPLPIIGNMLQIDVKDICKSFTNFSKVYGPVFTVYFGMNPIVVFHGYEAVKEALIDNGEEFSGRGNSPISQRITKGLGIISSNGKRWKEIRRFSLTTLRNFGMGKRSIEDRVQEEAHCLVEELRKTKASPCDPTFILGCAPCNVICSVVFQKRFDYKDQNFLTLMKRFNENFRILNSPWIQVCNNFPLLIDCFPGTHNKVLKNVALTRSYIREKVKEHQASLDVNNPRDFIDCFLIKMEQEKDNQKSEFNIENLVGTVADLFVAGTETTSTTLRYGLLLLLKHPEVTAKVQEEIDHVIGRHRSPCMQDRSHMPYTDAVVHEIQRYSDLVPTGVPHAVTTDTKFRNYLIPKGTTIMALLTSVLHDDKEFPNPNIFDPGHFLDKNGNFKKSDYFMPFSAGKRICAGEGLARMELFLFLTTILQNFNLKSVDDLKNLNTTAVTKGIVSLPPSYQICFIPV
The data set is described as follows: Time dependent inhibition of CYP2C8 (unknown origin) at 30 uM measured after 30 mins relative to control. The format is ADME. To be noted: read-out: TDI.

Data set [8] has as its target T5, CYP3A4 (Homo sapiens, UniProt P08684). The data set is described as follows: Time dependent inhibition of CYP3A4 (unknown origin) using testosterone as substrate at 30 uM measured after 30 mins relative to control. Format: ADME. The conditions noted are these: probe testosterone, read-out: TDI.
Data set [9] can be described thus: Apparent permeability of compound from apical to basolateral side in human Caco-2 cells. Format: ADME, cell-based. To be noted: read-out: permeability. In general terms: Passage across Caco-2 layers is used to estimate intestinal permeability.
The target of data set [10] is CYP2C9 (Homo sapiens, UniProt P11712). The data set is described as follows: Time dependent inhibition of CYP2C9 (unknown origin) at 30 uM measured after 30 mins relative to control. The format is ADME. The conditions noted are these: read-out: TDI.
A short description of data set [11]: Clearance in Sprague-Dawley rat at 0.5 mg/kg, iv measured up to 24 hrs by LC-MS/MS analysis. The format is ADME, organism-based. The conditions noted are these: in vivo.
Data set [12] deals with CYP2D6 (Homo sapiens, UniProt P10635). The data set is described as follows: Time dependent inhibition of CYP2D6 (unknown origin) at 30 uM measured after 30 mins relative to control. The format is ADME. The conditions noted are these: read-out: TDI.
A short description of data set [13]: Metabolic stability in rat hepatocytes assessed as intrinsic clearance measured per 10^6 cells. The format is ADME, cell-based, Hepatocyte. To be noted: read-out: CLH.
A short description of data set [14]: Clearance in Beagle dog at 0.5 mg/kg, iv measured up to 24 hrs by LC-MS/MS analysis. Format: ADME, organism-based, Canis lupus familiaris. To be noted: in vivo.
A short description of data set [15]: Clearance in CD-1 mouse at 0.5 mg/kg, iv measured up to 24 hrs by LC-MS/MS analysis. Format: ADME, organism-based. To be noted: in vivo.
Data set [16] can be described thus: Efflux ratio in human Caco-2 cells. The format is ADME, cell-based.
In data set [17] the target is T5, CYP3A4. The data set is described as follows: Time dependent inhibition of CYP3A4 (unknown origin) using midazolam as substrate at 30 uM measured after 30 mins relative to control. To be noted: probe midazolam, read-out: TDI. The format is ADME.
A short description of data set [18]: AUCinf in Sprague-Dawley rat at 2 mg/kg, po measured up to 8 hrs by LC-MS/MS analysis. Format: ADME, organism-based. To be noted: in vivo.
Data set [19] deals with hERG (KCNH2) (Homo sapiens, UniProt Q12809). The data set is described as follows: Inhibition of hERG at 10 uM by high throughput cell based patch clamp assay. The format is toxicity. On the technique in general: The hERG channel carries a current that helps repolarise heart muscle cells.
Data set [20] is described as follows: Metabolic stability in human hepatocytes assessed as intrinsic clearance measured per 10^6 cells. Format: ADME, cell-based, Hepatocyte. To be noted: read-out: CLH.
Data set [21] deals with 786-0. The data set is described as follows: Anti-tumor activity against human 786-0 cells xenografted in mouse model assessed as tumor growth inhibition at 40 mg/kg, po once daily for 15 days. The conditions noted are these: time 15.0 day. Format: functional, organism-based. (A xenograft is tissue or cells of one species grown in another, often human tumour cells in immunodeficient mice.)

Each structure is given as a SMILES string. pIC50: −log10 of the molar value. The source made the active and inactive calls. No cut-off for these calls is given here.

T5 sequence (P08684 whole entry): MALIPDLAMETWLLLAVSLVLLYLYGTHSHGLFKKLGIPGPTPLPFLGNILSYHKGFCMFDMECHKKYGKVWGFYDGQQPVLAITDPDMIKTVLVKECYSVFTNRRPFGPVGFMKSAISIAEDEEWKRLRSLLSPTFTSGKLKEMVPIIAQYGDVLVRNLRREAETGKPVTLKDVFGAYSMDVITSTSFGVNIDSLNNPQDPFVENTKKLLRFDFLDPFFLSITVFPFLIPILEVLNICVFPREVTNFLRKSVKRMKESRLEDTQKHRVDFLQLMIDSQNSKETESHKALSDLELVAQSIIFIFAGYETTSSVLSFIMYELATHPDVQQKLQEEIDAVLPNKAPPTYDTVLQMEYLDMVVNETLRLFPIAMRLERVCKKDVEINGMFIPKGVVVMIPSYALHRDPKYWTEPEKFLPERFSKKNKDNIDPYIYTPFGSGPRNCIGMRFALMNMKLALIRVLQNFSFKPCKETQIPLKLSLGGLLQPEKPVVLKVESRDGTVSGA
Chain of hERG (KCNH2) (Q12809 whole entry): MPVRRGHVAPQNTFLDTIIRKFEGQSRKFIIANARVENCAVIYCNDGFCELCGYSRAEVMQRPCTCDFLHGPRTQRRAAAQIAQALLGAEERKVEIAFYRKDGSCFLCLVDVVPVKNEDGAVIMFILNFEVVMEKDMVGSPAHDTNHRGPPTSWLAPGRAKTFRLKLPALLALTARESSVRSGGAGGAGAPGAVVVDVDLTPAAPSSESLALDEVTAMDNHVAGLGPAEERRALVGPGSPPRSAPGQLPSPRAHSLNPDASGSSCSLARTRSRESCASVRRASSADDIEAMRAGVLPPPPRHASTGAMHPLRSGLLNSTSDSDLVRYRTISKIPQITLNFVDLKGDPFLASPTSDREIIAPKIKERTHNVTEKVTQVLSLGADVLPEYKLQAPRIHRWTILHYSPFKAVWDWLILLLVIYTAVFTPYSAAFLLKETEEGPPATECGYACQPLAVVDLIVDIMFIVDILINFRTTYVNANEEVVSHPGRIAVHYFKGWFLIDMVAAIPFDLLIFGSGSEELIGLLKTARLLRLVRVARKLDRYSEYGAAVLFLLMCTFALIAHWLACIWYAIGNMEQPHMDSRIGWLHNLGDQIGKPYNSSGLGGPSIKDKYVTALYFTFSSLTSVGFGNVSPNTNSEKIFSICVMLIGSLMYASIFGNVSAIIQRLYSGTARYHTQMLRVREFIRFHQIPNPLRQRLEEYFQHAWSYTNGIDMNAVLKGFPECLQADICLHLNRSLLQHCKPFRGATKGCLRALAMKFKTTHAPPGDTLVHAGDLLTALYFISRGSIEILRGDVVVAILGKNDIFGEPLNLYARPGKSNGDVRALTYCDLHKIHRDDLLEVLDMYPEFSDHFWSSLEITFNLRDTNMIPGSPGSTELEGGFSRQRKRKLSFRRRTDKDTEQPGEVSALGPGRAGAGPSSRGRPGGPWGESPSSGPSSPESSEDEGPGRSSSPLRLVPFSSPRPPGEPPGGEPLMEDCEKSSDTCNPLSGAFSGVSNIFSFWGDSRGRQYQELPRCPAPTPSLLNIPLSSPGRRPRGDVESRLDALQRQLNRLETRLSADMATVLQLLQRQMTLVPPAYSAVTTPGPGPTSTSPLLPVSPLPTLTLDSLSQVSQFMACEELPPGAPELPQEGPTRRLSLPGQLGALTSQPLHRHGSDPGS
Chain of CYP2C9 (P11712 whole entry): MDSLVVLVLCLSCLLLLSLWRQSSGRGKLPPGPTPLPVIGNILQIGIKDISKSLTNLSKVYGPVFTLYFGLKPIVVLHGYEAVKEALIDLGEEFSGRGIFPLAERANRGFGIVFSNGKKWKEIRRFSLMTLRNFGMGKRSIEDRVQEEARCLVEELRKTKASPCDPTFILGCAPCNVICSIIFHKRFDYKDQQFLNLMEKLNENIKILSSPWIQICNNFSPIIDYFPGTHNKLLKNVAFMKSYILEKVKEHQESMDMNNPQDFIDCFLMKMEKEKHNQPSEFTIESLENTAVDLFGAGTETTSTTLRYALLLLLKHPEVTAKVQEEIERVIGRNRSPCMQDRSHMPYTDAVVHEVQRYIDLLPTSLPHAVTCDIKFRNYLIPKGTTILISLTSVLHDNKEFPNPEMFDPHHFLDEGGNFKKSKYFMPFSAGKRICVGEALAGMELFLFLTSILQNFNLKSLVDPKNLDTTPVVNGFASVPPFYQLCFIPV
Chain of CYP2D6 (P10635 whole entry): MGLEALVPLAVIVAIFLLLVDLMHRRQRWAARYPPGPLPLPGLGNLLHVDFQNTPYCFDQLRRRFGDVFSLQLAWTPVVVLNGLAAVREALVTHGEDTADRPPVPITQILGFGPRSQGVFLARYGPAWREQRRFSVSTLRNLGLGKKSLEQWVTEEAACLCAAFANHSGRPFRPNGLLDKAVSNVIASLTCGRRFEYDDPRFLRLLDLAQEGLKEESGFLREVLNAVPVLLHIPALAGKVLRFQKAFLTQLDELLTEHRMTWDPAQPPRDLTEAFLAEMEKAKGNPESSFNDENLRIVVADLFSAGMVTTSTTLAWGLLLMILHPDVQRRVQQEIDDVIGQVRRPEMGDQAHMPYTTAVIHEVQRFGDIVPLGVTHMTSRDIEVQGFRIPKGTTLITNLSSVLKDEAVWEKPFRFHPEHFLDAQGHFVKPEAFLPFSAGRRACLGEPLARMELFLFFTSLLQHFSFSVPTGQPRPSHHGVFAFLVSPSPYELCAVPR
Chain of CYP2C19 (P33261 whole entry): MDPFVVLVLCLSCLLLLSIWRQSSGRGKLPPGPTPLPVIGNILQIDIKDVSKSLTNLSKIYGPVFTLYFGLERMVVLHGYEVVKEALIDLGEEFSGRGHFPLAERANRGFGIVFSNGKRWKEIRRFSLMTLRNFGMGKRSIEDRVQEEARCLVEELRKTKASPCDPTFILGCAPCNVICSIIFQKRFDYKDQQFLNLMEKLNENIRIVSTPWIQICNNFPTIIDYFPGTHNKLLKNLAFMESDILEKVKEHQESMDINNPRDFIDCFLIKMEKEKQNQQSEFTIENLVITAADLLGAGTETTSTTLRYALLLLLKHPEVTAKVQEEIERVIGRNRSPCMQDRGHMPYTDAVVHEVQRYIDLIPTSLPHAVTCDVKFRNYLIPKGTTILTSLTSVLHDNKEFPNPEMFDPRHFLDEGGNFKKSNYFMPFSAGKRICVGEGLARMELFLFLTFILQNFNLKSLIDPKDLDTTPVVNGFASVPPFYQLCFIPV

In the case of `Cc1cccnc1-c1ccc(-c2c[nH]c3ncc(-c4ccc5c(c4)CC[C@@H](N4C6COCC4C6)CC5)cc23)cc1`, the clearance (as a rule, the volume of plasma or blood freed of the substance per unit of time) in [1] was 4.67 mL/min/kg; in data set [11], 2.67 mL/min/kg; in data set [14] it was 11.8 mL/min/kg; in data set [15], 3.33 mL/min/kg. Besides, the inhibition at 0.5 h, 30 µM in [2] is 14%; in data set [3] it was 12%; in data set [6] it was 0%; in data set [7], 0%; in [8], 69%; in data set [10] it was 13%. Also, the inhibition at 0.5 h, 30 µM in data set [12] is 14%; in [17], 58%. Besides, the pIC50 (in general, −log10 of the IC50, conventionally taken in molar units) in data set [4] was 7.17; in [5] it was 9.14. For the same compound, the Papp A→B in data set [9] turned out to be 0.58 ×10⁻⁶ cm/s. Further, the results for the hepatocyte CLint in data set [13] and in data set [20] were 5.4 µL/min/1e6 cells and less than 2.7 µL/min/1e6 cells, respectively. In addition, the efflux ratio (commonly a quotient of directional permeabilities that is used to spot active efflux) in data set [16] is 0.9. Also, in [18], the total exposure AUC(0-inf) (in general, total exposure, with the tail of the curve extrapolated) came out at 4800 ng·h/mL. The inhibition at 10 µM in [19] came out at 40%.

With `CCN(CC)CCNC(=O)c1c(C)[nH]c(/C=C2\C(=O)Nc3ccc(F)cc32)c1C`, the result in data set [21] was inactive.

Turning to `Cc1cccnc1-c1ccc(-c2n[nH]c3ncc(-c4ccc5c(c4)CC[C@@H](N4C6COCC4C6)CC5)cc23)cc1`, the clearance is 6.83 mL/min/kg in data set [1], 2.67 mL/min/kg in [11], 25 mL/min/kg in [14] and 5.33 mL/min/kg in [15]. Further, the inhibition at 0.5 h, 30 µM in data set [2] came out at 22%; in [3], 23%; in data set [6], 24%; in data set [7] it was 14%; in [8] it was 50%; in [10], 0%. Besides, the inhibition at 0.5 h, 30 µM is 2.4% in [12] and 31% in data set [17]. The pIC50 in data set [4] was 7.19; in [5], 8.62. The Papp A→B in data set [9] turned out to be 0.96 ×10⁻⁶ cm/s. In addition, the hepatocyte CLint is 2.7 µL/min/1e6 cells in data set [13] and less than 2.7 µL/min/1e6 cells in [20]. Besides, in data set [16], the efflux ratio was 1. In addition, the AUC(0-inf) in [18] was 3000 ng·h/mL. The inhibition at 10 µM in [19] came to 23%.

The record behind these values is ChEMBL document CHEMBL6134930, “Discovery of AB801, a Potent and Selective Inhibitor of AXL Receptor Tyrosine Kinase for Use in Cancer Therapy” (J Med Chem, 2025).
